Results reported in paper PMC12362796, “Bilirubin Targeting WNK1 to Alleviate NLRP3‐Mediated Neuroinflammation” (Advanced Science, 2025).

How the values were obtained:
[1] = tested on: HEK 293T cell line; assay: MQAE intracellular chloride measurement in HEK 293T cell line; assay type: cell-based, human; settings: lacking KCC2 expression
Text: Since bilirubin‐induced activation of WNK1 kinase activity increases [Cl⁻]i in neurons, we sought to elucidate the downstream effector proteins of WNK1 that are involved in this process. Neuronal [Cl⁻]i is primarily regulated by the Cl⁻‐K⁺ symporter KCC2, with additional modulation by factors such as the Na⁺‐K⁺‐Cl⁻ co‐transporter NKCC1, GABAA receptors, and glycine receptors (GlyR), all of which contribute to [Cl⁻]i homeostasis.^[ [31] ^] To investigate the mechanism underlying bilirubin‐induced changes in [Cl⁻]i, we selectively targeted these proteins using pharmacological inhibitors (VU0463271 for KCC2, bumetanide for NKCC1, bicuculline for GABAA receptors, and strychnine for GlyR) and activated KCC2 using CLP257.^[ [35], [36] ^] […] The bilirubin‐induced effect on [Cl⁻]i was not observed in primary astrocytes (Figure S15A,B, Supporting Information) or the HEK 293T cell line (Figure S15C, Supporting Information), both of which lacked KCC2 expression (Figure S16A,B, Supporting Information), further confirming that the effects of bilirubin and WNK1 on [Cl⁻]i elevation are dependent on KCC2.
Intracellular chloride concentration ([Cl⁻]i) was measured using the MQAE fluorescent dye (Life Technologies) following established protocols (Zhang, Lee et al. 2015). […]

[2] = tested on: LPS-induced NLRP3 inflammasome activation in hippocampus; assay: LPS-induced inflammation model in mice, hippocampal NLRP3 inflammasome activation; assay type: in vivo, mouse
Text: Furthermore, a murine model of infection‐induced inflammation was established in neonatal wild‐type, Blvra^−/− , and Ugt1a1^+/− mice by intraperitoneal administration of lipopolysaccharide (LPS) (Figure 5A).^[ [41], [42] ^] We assessed the expression levels of NLRP3 in the hippocampal region and the aggregation of the adaptor protein ASC in hippocampal neurons to indicate the level of inflammasome activation.^[ [43], [44] ^] We observed elevated NLRP3 expression (Figure 5B) and increased ASC aggregation in low‐bilirubin Blvra^−/− mice compared to wild‐type controls, whereas these parameters were reversed in high‐bilirubin Ugt1a1^+/− mice (Figure 5C,D). Additionally, Caspase‐1 enzyme activity decreased in high‐bilirubin mice (Figure 5E), supporting the inhibitory role of bilirubin in NLRP3 activation.
Figure 5 Bilirubin‐WNK1 suppresses LPS‐induced NLRP3 activation in the mouse hippocampus. A) Diagram of the experimental design. LPS (0.6 µg g^−1) or normal saline (NS) was injected intraperitoneally (i.p.) for 5 consecutive days starting on day 7. Hippocampal tissues were harvested 6 h after last injection. B) Western blotting analysis of NLRP3 in hippocampal tissues from WT, Blvra^−/− , or Ugt1a1^+/− mice after LPS/saline treatment. C) Immunofluorescence staining of ASC speck formation in hippocampal tissues from WT, Blvra^−/− , or Ugt1a1^+/− mice after LPS/saline treatment. β3‐Tubulin was used to label neurons and DAPI to stain cell nuclei. Main image scale bars = 50 µm, inset scale bars = 5 µm. D) Summary data showing the percentage of cells containing ASC specks as shown in C) (n = 6). (E) Relative activity of caspase‐1 in hippocampal tissues from WT, Blvra^−/− , or Ugt1a1^+/− mice after LPS/saline treatment (n = 3). F) Experimental design diagram. LPS (0.6 µg g^−1), LPS combined with bilirubin (5 µg g^−1), or normal saline (NS) was injected intraperitoneally for 5 consecutive days starting on day 7. G) Western blotting analysis of NLRP3 in hippocampal tissues from Wnk1^fl/fl,Thy1‐Cre mice after treatment. H) Immunofluorescence staining of ASC speck formation in hippocampal tissues from vehicle‐treated and Wnk1^fl/fl,Thy1‐Cre mice after treatment. β3‐Tubulin was used to label neurons and DAPI to stain cell nuclei. Main image scale bars = 50 µm, inset scale bars = 5 µm. Corresponding images are also provided in Figure S21 (Supporting Information). I) Relative activity of caspase‐1 in hippocampal tissues from Wnk1^fl/fl and Wnk1^fl/fl,Thy1‐Cre mice after treatment (n = 3). Error bars indicate mean ± SD. *p < 0.05, **p < 0.01, ***p < 0.001, and ****p < 0.0001.
To investigate the role of WNK1 in mediating the inhibitory effect of bilirubin on NLRP3 activation, we used Wnk1^fl/fl,Thy1‐Cre mice which is the hippocampal neuron‐specific Wnk1 knockout mice. Mice were then administered intraperitoneal injections of saline, LPS, or a combination of LPS and bilirubin (Figure 5F). After five days of LPS treatment, we observed increased staining areas for GFAP (an astrocyte marker) and IBA1 (a microglia marker). Furthermore, a portion of the adaptor protein ASC (encoded by PYCARD) co‐localized with IBA1 and GFAP.
Caspase‐1 activity was measured using a Caspase‐1 Activity Assay Kit (Beyotime Biotechnology, Haimen, China). Briefly, 50 µg of protein from the mouse hippocampal tissue was added to a reaction buffer containing Ac‐YVAD‐ρNA. The absorbance was read at 405 nm using a microplate reader, and caspase‐1 activity was normalized to that of the control.

[3] = LPS 0.6 µg g−1 with bilirubin 5 µg g−1 i.p., 5 consecutive days, hippocampus

C=CC1=C(C)/C(=C/c2[nH]c(Cc3[nH]c(/C=C4\NC(=O)C(C)=C4C=C)c(C)c3CCC(=O)O)c(CCC(=O)O)c2C)NC1=O [bilirubin, Bilirubin]
bilirubin-induced effect on [Cl−]i [1]: not observed | ASC speck formation ([2]; LPS 0.6 µg g−1 with bilirubin 5 µg g−1 i.p., 5 consecutive days, hippocampal neurons): reduces | Caspase-1 activation [2, 3]: reduces | IL-1β cleavage [2, 3]: reduces | ASC aggregation in microglia or astrocytes ([2]; LPS with bilirubin i.p., 5 days, IBA1 and GFAP co-localization): does not affect | inhibitory effect on NLRP3 inflammasome assembly, Caspase-1 enzyme activity and IL-1β maturation after deletion of Wnk1 ([2]; Wnk1fl/fl,Thy1-Cre mice, LPS stimulation): abolished | phosphorylation-mediated activation of the NF-κB p65 subunit ([2]; upon LPS stimulation, hippocampus): neither bilirubin nor Wnk1 deficiency had a significant effect
